# Reference: patent publication US20190183868A1, “FORMULATIONS AND TREATMENTS EMPLOYING HYDROXYPYRIDONATE ACTINIDE/LANTHANIDE DECORPORATION AGENTS” (priority 2016, published 2019)
# What was measured:
# [1] = Delayed parenteral (ip) chelation treatment of mice contaminated iv with ^238Pu-citrate; format: in vivo, Swiss-Webster mice; conditions: for adverse effects at the dose levels used: both studies (delayed and prophylactic treatment); for sustained action beyond 24 hours after treatment: cumulative ^238Pu excretion, FIG. 4; for ^238Pu excretion pathway enhanced by treatment: independent of post-contamination treatment time, FIG. 5; for time by which rates of elimination became slower than in control animals: prompt treatment 1 hour post-contamination; for ^238Pu elimination, total body burden and tissue content versus saline-treated controls: 7 days after treatment
# Protocol: (§1) A stock solution of ^238Pu-nitrate in 4 M HNO3 was purchased from Eckert and Ziegler Isotope Products (Valencia, CA, USA) and used to prepare injection solutions. Contamination doses consisted of 0.2 mL aliquots of solutions containing 0.74 kBq (1.16 ng) of ^238Pu in 0.008 M sodium citrate and 0.14 M NaCl, pH 4. The ligands 3,4,3-LI(1,2-HOPO) and 5-LIO(Me-3,2-HOPO) were prepared by Synthetech, Inc. (Albany, Oreg., USA) and Albany Molecular Research, Inc. (Albany, NY, USA), respectively, as described previously. DTPA was obtained from Sigma-Aldrich (St. Louis, Mo., USA) and was formulated as Ca-DTPA using CaCO3 and NaOH, similarly to the formerly available drug product commercialized by Hameln Pharmaceuticals gmbh (Hameln, Germany). Ligand solutions were prepared such that the selected dosages ([…] for Ca-DTPA, 30 or 100 mol/kg for 3,4,3-LI(1,2-HOPO), and 100 or 200 mol/kg for 5-LIO(Me-3,2-HOPO)) were contained in 0.5 mL of 0.14 M NaCl, with the pH adjusted to 7.4-8.4 with 1 N NaOH. All solutions were filter-sterilized (0.22 μm) prior to administration. The concentration of each solution was verified by high-performance liquid chromatography, following modified published methods.
# (§2) All procedures and protocols used in the described in vivo studies were reviewed and approved by the Institutional Animal Care and Use Committee of Lawrence Berkeley National Laboratory and were performed in AAALAC accredited facilities. The animals used were young adult (86±6 days old for delayed treatment experiment and 90±3 days old for prophylactic treatment experiment) female (30.7±4.0 g for delayed treatment experiment and 30.8±1.6 g for prophylactic treatment experiment) Swiss-Webster mice (Simonsen Laboratories, Gilroy, Calif., USA). Gross body and tissue compositions, plasma, extracellular fluid, and red cell volumes of the whole body, major tissues and organs of these mice (intact or bled 25 to 40% of their total blood volume) have been determined previously. Mice were kept under a 12-hour light cycle with controlled temperature (18-22° C.) and relative humidity (30-70%), and were given water and food ad libitum. Each group of mice was housed together in a plastic stock cage lined with a 0.5 cm layer of highly absorbent low-ash pelleted cellulose bedding (ALPHA-dri®) for separation of urine and feces. Intravenous (iv) injections into a warmed lateral tail vein, intraperitoneal (ip) injections, oral administrations (po, through gastric intubation) and euthanasia were performed under isoflurane anesthesia. Treatment dose volumes were adjusted based on the weight of the mouse, with a 0.5 mL volume corresponding to a 35 g mouse. To probe the effect of delayed treatment, groups of five mice were injected iv with a single dose of ^238Pu-citrate, and ligand or control saline solutions were administered ip once at the following post-contamination treatment times: 1 h, 5 h, 16 h, 24 h, 3 d, 7 d. Excreta were collected daily for 7 days. Animals were euthanized 7 days after treatment. To probe the effect of prophylactic treatment, groups of five mice were first administered ligand or control saline solutions ip or po once at the following pre-contamination treatment times: −1 h, −6 h, −16 h, −24 h, −30 h, −40 h, −48 h. Mice were then injected iv with a single dose of ^238Pu-citrate and excreta were collected daily for 3 days. Animals were euthanized 3 days (72 h) after contamination. Mice were euthanized by cervical dislocation over their respective cage to collect the urine expelled at death, and immediately wrapped in plastic and frozen for later dissection.
# (§3) After partial thawing of the frozen mice, livers and kidneys were dissected, and the abdominal tissue remainder (ATR, which includes intact gastrointestinal (GI) tract, reproductive organs, spleen, urinary bladder, and abdominal fat) was removed. The livers, kidneys, ATR, and partially eviscerated carcasses were managed as individual samples. […]
# [2] = Prophylactic parenteral or oral chelation treatment of mice before iv ^238Pu-citrate contamination; format: in vivo, Swiss-Webster mice; conditions: for prophylactic window with significant reductions in total body, skeleton and liver ^238Pu: oral administration, versus saline controls; for prophylactic window with significant reduction of body and tissue ^238Pu burden: parenteral (ip) administration prior to contamination
# Protocol: as §1, §2, §3
# [3] = Complex stability constant in vitro, Pu(IV); format: binding
# Description: (§4) The mechanism of action of 3,4,3-LI(1,2-HOPO) is a chelation mechanism, in which the compound binds the targeted actinide and forms a stable complex that can be eliminated through excretion pathways. Chelation is likely to be clinically efficacious if the affinity of the chelating agent for the targeted actinide metal ion is higher than those of potential biological ligands (such as proteins and bone matrices) and if its affinity for the targeted actinide metal ion is more specific than for essential divalent metal ions. A quantitative tool to predict the efficacy of a chelating agent and confirm its potential for actinide chelation is the determination of the corresponding actinide complex stability constants in vitro. As outlined in Example 2 below, these constants were evaluated for metals such as Pu(IV) (Log β110>41.5) or Cm(III) (Log β110=21.8), and support the chelation mechanism of action by 3,4,3-LI(1,2-HOPO).
# [4] = Complex stability constant in vitro, Cm(III); format: binding
# Description: as §4
# [5] = Complex stability constant in vitro, Gd(III); format: binding
# Description: as §4
# [6] = Gd-153 decorporation in mice injected with ^153Gd citrate (Example 9); format: in vivo; conditions: for excretion pathway: Gd-153
# Protocol: The present example is an evaluation of the metal-removal effectiveness of various molecules, including 3,4,3-LI(1,2-HOPO) and DTPA. The arrangements tested (which compounds, how much, how long pre or post-contamination the compound was administered, etc.) are outlined in Table 9.1.
# The results of the various test arrangements in Table 9.1 are detailed in FIGS. 8A-8Q. The data is plotted as a percent of recovered dose (%RD), with whole animal and specific tissue isotope content determine at a unique time point (4 days post metal challenge) while excreta are determined daily until necropsy. […] The almost-exclusively-fecal excretion pathway of 3,4,3-LI(1,2-HOPO) is also remarkably different from that of DTPA (urinary). […] FIGS. 8A-8C depict a general overview of the results. FIG. 8D depicts a comparative analysis of the recovered dose in the body vs excreta. FIGS. 8E-8P depict a break down by tissue type, including brain (FIG. 8E), Thymus (FIG. 8F), heart (FIG. 8G), lungs (FIG. 8H), spleen (FIG. 8I), kidneys (FIG. 8J), abdominal remaining tissue (ART, FIG. 8K), all other soft tissues (SOFT, FIG. 8L), liver (FIG. 8M), and skeleton (SKEL, FIG. 8N). FIGS. 8O and 8P show the total urinary and fecal excretion at the time of necropsy. FIG. 8Q depicts the daily excreta.
# [7] = Pharmacokinetics and biodistribution of ^14C-labeled ligand in mice; format: in vivo, Swiss-Webster mouse; conditions: for metabolic degradation: ^14C-labeled ligands
# Description: The pharmacokinetics and biodistribution profile of the ^14C-labeled 3,4,3-LI(1,2-HOPO) were recently characterized in the young Swiss-Webster mouse model. After parenteral injection, the radiolabeled compound was rapidly distributed into high vascular tissues, and highest kidney and liver concentrations were seen as early as 1-hour post-administration. However, those high concentrations […] and more strikingly, about 40% of the administered dose was still in various tissues and organs after 24 hours. […] Nevertheless, retention of the ligand was significant within the first 6 hours after oral administration, which also corroborates the shorter but consequent prophylactic activity of 3,4,3-LI(1,2-HOPO) after oral administration.
# Those differences have been discussed previously and are presumably based on respective ligand and actinide-complex physico-chemical parameters such as solubility, lipophilicity, and ionization constants. […] It is therefore likely that the radionuclide excretion path is ligand-driven.
# (§5) Oral Activity. Both compounds are orally active actinide chelators: when administered orally to mice or beagles after a Pu injection, 3,4,3-LI-1,2-HOPO and 5-LIO-Me-3,2-HOPO can remove up to 80% and 60%, respectively, of the injected Pu.
# [8] = Clearing circulating or newly deposited Pu from mouse tissues compared with CaNa3-DTPA; format: in vivo
# Description: For example, the efficiency of 3,4,3-LI-1,2-HOPO for clearing circulating Pu from mouse tissues ranges from 100 times (skeleton) to 240 times (soft tissues) that of CaNa3-DTPA in five different protocols. In addition, the optimal activity dose of 3,4,3-LI-1,2-HOPO for removing newly deposited Pu from mice is 2.5% of the dose of CaNa3-DTPA used clinically. The tetradentate 5-LIO-Me-3,2-HOPO has potential therapeutic value for Pu, U, Am and Np, and its efficiency for clearing circulating Pu from mouse tissues ranges from 5 times (skeleton) to 15 times (liver) that of CaNa3-DTPA.
# [9] = Oral activity: removal of injected Pu after oral administration; format: in vivo; conditions: administered orally after a Pu injection, mice or beagles
# Description: as §5
# [10] = ADME studies with ^14C-labeled 3,4,3-LI(1,2-HOPO) in rats (brain); format: in vivo; conditions: ^14C-labeled ligand; traces in rat brain several days after administration
# Description: (§6) This property is particularly relevant to target Gd deposited in the brain.
# [11] = Decorporation of actinide ions in animal studies, potency versus DTPA; format: in vivo
# Description: as §6
# [12] = single ip dose 1 hour to 16 hours post-contamination
compound,measurement,setting,value
"O=C(NCCCN(CCCCN(CCCNC(=O)c1cccc(=O)n1O)C(=O)c1cccc(=O)n1O)C(=O)c1cccc(=O)n1O)c1cccc(=O)n1O [3,4,3-LI(1,2-HOPO)]",^238Pu skeleton content,[1]; all tested treatment time points,significantly reduced
same,adverse effects at the dose levels used,[1],did not result in any discernable adverse effects
same,sustained action beyond 24 hours after treatment,[1],visible throughout the seven-day excreta collection period
same,^238Pu excretion pathway enhanced by treatment,[1],primarily through the biliary pathway
same,time by which rates of elimination became slower than in control animals,[1],3 days post-treatment
same,decrease in ^238Pu content versus DTPA treatment,[1]; [12],significantly better than those observed after DTPA treatment
same,"^238Pu elimination, total body burden and tissue content versus saline-treated controls",[1]; [12],significant increases in ^238Pu elimination rates
same,^238Pu elimination,[1]; treatment delayed 24 hours to 7 days after contamination,significantly enhanced
same,^238Pu urinary output relative to fecal output,[2]; 30 μmol/kg ip 1 hour prior to contamination,3 fold
same,^238Pu excreted within 3 days,[2]; ip injection 48 hours before contamination,up to 50%
same,"prophylactic window with significant reductions in total body, skeleton and liver ^238Pu",[2],6 h
same,prophylactic window with significant reduction of body and tissue ^238Pu burden,[2],≥ 48 h
same,"full body, skeleton, liver, soft tissue and kidney ^238Pu content versus saline- and DTPA-treated groups",[2]; prophylactic ip treatment,large significant reductions
same,oral bioavailability,[2]; reflected in lack of efficacy for earlier oral treatments,low
same,Log β110,[3],> 41.5
same,Log β110,[4],21.8
same,Log β110,[5],20.5
same,Gd-153 removal,"[6]; 100 μmol/kg ip, 48 hours post-exposure",extremely efficient
same,Gd-153 decorporation,"[6]; 100 μmol/kg ip, up to 24 hours prophylactically",high and almost quantitative level of decorporation
same,excretion pathway,[6],almost-exclusively-fecal
same,Gd-153 removal from kidneys,[6]; compared with DTPA,more efficient than DTPA
same,Gd-153 removal from the skeleton,"[6]; mouse, in vivo",ability at removing Gd-153 from the skeleton
same,metabolic degradation,[7],stable to metabolic degradation
same,administered dose still in various tissues and organs,"[7]; after 24 hours, parenteral injection, ^14C-labeled",about 40%
same,main mode of elimination of the ligand,"[7]; mice, parenteral or oral administration, ^14C-labeled",biliary pathway is the main mode of elimination
same,time of highest kidney and liver concentrations,"[7]; post-administration, parenteral injection, ^14C-labeled",1 h
same,"optimal activity dose for removing newly deposited Pu, as share of the CaNa3-DTPA dose used clinically",[8]; mice,2.5%
same,efficiency for clearing circulating Pu relative to CaNa3-DTPA,[8]; mouse skeleton,100 times
same,efficiency for clearing circulating Pu relative to CaNa3-DTPA,[8]; mouse soft tissues,240 times
same,injected Pu removed,[9],up to 80%
same,blood-brain barrier penetration,[10],can penetrate the blood-brain barrier
same,potency relative to DTPA at decorporating actinide ions,[11],up to 30 times
"Cn1ccc(C(=O)NCCOCCNC(=O)c2ccn(C)c(=O)c2O)c(O)c1=O [5-LIO(Me-3,2-HOPO)]",adverse effects at the dose levels used,[1],did not result in any discernable adverse effects
same,sustained action beyond 24 hours after treatment,[1],did not display significant sustained action
same,^238Pu excretion pathway enhanced by treatment,[1],primarily through the biliary pathway
same,time by which rates of elimination became slower than in control animals,[1],2 days post-treatment
same,"^238Pu elimination, total body burden and tissue content versus saline-treated controls",[1]; [12],significant increases in ^238Pu elimination rates
same,"prophylactic window with significant reductions in total body, skeleton and liver ^238Pu",[2],6 h
same,prophylactic window with significant reduction of body and tissue ^238Pu burden,[2],1 h
same,metabolic degradation,[7],stable to metabolic degradation
same,efficiency for clearing circulating Pu relative to CaNa3-DTPA,[8]; mouse liver,15 times
same,efficiency for clearing circulating Pu relative to CaNa3-DTPA,[8]; mouse skeleton,5 times
same,injected Pu removed,[9],≤ 60%
"diethylenetriamine pentaacetic acid [DTPA, reference compound]",sustained action beyond 24 hours after treatment,[1],visible over several days after treatment
same,^238Pu excretion pathway enhanced by treatment,[1],enhanced urinary excretion
same,prophylactic window with significant reduction of body and tissue ^238Pu burden,[2],6 h
same,excretion pathway,[6],urinary
